Measurements: BigSolDB 2.1

COC(=O)CC[C@H](N)C(=O)O
solubility (mole fraction)
Conditions	283.15 K	288.15 K	293.15 K	298.15 K	303.15 K	308.15 K	313.15 K	318.15 K	323.15 K
in acetone	5.18e-05	9.7e-05	0.000148	0.000221	0.000292	0.000377	0.000438	0.000516	0.000572
in ethanol	0.000116	0.000147	0.000177	0.000212	0.000245	0.000272	0.000307	0.000348	0.000383
in isopropanol	8.34e-05	0.000104	0.000124	0.000144	0.000166	0.000196	0.000217	0.000245	0.000272
in methanol	0.00115	0.00122	0.0013	0.00138	0.00145	0.00152	0.00161	0.0017	0.00179
in n-propanol	1.38e-05	4.22e-05	7.7e-05	0.000116	0.000154	0.000208	0.000246	0.000289	0.000336
in water	0.0337	0.036	0.0394	0.0426	0.0457	0.0489	0.0523	0.0565	0.0608
